Experiments:
Type in all cases: cell-based
[1] = tested on: HL-60 (acute myelogenous leukemia, AML); experiment: CellTiter-Glo (CTG) cytotoxicity assay, HL-60; details: Homo sapiens; HL-60, CTG assay, 48 h; read-out: Growth inhibition 50% (GI50) HL-60
Experimental: (§1) Compounds 1–5 were evaluated for their cytotoxicity against seven blood cancer cell lines, the most common cancer types in Korea, along with a normal cell line: HL-60 (acute myelogenous leukemia, AML), Raji (Burkitt’s lymphoma), WSU-DLCL2 (diffuse large B-cell lymphoma, DLBCL), NALM6 C. G5 (B-cell acute lymphocytic leukemia, B-ALL), K562 (chronic myelogenous leukemia, CML), RPMI-8402 (T-cell acute lymphocytic leukemia, T-ALL), U266 (multiple myeloma), and RPMI-1788 (B lymphocytes, normal cell line).
(§2) The cytotoxicity test was conducted with CTG luminescent cell viability and SRB assay according to the published procedures. Briefly, blood cancer cell lines and a normal cell line were obtained from the American Type Culture Collection (Manassas, VA, USA) (HL-60: acute myelogenous leukemia, Raji: Burkitt’s lymphoma, NALM6 C. G5: B-cell acute lymphocytic leukemia, K562: chronic myelogenous leukemia, U266: multiple myeloma, and RPMI-1788: B lymphocytes) and the DSMZ-German Collection of Microorganisms and Cell Cultures (WSU-DLCL2: diffuse large B-cell lymphoma and RPMI-8402: T-cell acute lymphocytic leukemia). The cell lines were incubated in RPMI 1640 supplemented with 10% fetal bovine serum, penicillin (100 IU/mL), and streptomycin (100 µg/mL) at 37 °C under a humidified atmosphere of 5% CO2. The cells with a passage number between 8 and 12 were used. The cell lines were prepared in an opaque-walled 96-well plate (8 × 10^3 cells/well), and the compounds (1–5 and doxorubicin as a positive control) with 0.1% DMSO were added to each well and incubated for 48 h. The cell cultures were then treated with 100 µL of CellTiter-Glo Reagent (Promega, Madison, WI, USA) and kept for 10 min to acquire a luminescence signal. Luminescence measurements were performed with the GloMax-Multi Detection System (Promega, Madison, WI, USA). The solid cancer cell lines and the normal cell line were obtained from the American Type Culture Collection (Manassas, VA, USA) (ACHN: renal, MDA-MB-231: breast, PC-3: prostate, NCI-H23: lung, HCT-15: colon, and MRC-9: lung fibroblast) and the Japanese Cancer Research Resources Bank (JCRB) (NUGC-3: stomach). The cell lines were incubated in RPMI 1640 supplemented with 10% fetal bovine serum, penicillin (100 IU/mL), and streptomycin (100 µg/mL) at 37 °C under a humidified atmosphere of 5% CO2. The cells with a passage number between 8 and 12 were used. The cells were then prepared in a 96-well plate (8 × 10^3 cells/well), and the compounds (1–5 and adriamycin as a positive control) with 0.1% DMSO were added to each well. After incubation for 48 h, the cell cultures were fixed using 50% trichloroacetic acid ([…]) and were dyed with 0.4% SRB in 1% acetic acid. Unbound dye was washed using 1% acetic acid and protein-bound dye was collected with 10 mM Tris base (pH 10.5) to measure optical density. Absorbance was measured at 540 nm with a VersaMax microplate reader (Molecular Devices, Sunnyvale, CA, USA) and GI50 values were calculated by GraphPad Prism 4.0 (GraphPad, San Diego, CA, USA).

[2] = tested on: Raji (Burkitt's lymphoma); experiment: CellTiter-Glo (CTG) cytotoxicity assay, Raji; details: Homo sapiens, 48 h, read-out: Growth inhibition 50% (GI50) Raji
Experimental: as §1, §2

[3] = tested on: WSU-DLCL2 (diffuse large B-cell lymphoma, DLBCL); experiment: CellTiter-Glo (CTG) cytotoxicity assay, WSU-DLCL2; details: Homo sapiens, WSUDLCL2, 48 h, read-out: Growth inhibition 50% (GI50) WSU-DLCL2
Experimental: as §1, §2

[4] = tested on: NALM6 C. G5 (B-cell acute lymphocytic leukemia, B-ALL); experiment: CellTiter-Glo (CTG) cytotoxicity assay, NALM6 C. G5; details: Homo sapiens, NALM-6, 48 h, read-out: Growth inhibition 50% (GI50) NALM6 C. G5
Experimental: as §1, §2

[5] = tested on: K562 (chronic myelogenous leukemia, CML); experiment: CellTiter-Glo (CTG) cytotoxicity assay, K562; details: Homo sapiens, 48 h, read-out: Growth inhibition 50% (GI50) K562
Experimental: as §1, §2

[6] = tested on: RPMI-8402 (T-cell acute lymphocytic leukemia, T-ALL); experiment: CellTiter-Glo (CTG) cytotoxicity assay, RPMI-8402; details: Homo sapiens; RPMI-8402, CTG assay, 48 h; read-out: Growth inhibition 50% (GI50) RPMI-8402
Experimental: as §1, §2

U266 (multiple myeloma) = experiment: CellTiter-Glo (CTG) cytotoxicity assay, U266; details: Homo sapiens, U-266, 48 h, read-out: Growth inhibition 50% (GI50) U266
Experimental: as §1, §2

[7] = tested on: RPMI-1788 (B lymphocytes, normal cell line); experiment: CellTiter-Glo (CTG) cytotoxicity assay, RPMI-1788 normal cell line; details: 48 h, read-out: Growth inhibition 50% (GI50) RPMI-1788
Experimental: as §1, §2

ACHN (renal) = experiment: Sulforhodamine B (SRB) cytotoxicity assay, ACHN; details: Homo sapiens, 48 h, read-out: Growth inhibition 50% (GI50) ACHN
Experimental: (§3) Compounds 1–5 were further evaluated for their cytotoxicity against six solid cancer cell lines and a normal cell line: ACHN (renal), MDA-MB-231 (breast), PC-3 (prostate), NUGC-3 (stomach), NCI-H23 (lung), HCT-15 (colon), and MRC-9 (lung fibroblast, normal cell line). […] Additionally, compounds 1–5 were evaluated for their antimicrobial properties by applying the broth microdilution method, described by the Clinical and Laboratory Standards Institute, against three Gram-positive bacteria, Bacillus subtilis (KCTC 1021), Micrococcus luteus (KCTC 1915), and Staphylococcus aureus (KCTC 1927), and three Gram-negative bacteria, Escherichia coli (KCTC 2441), Salmonella enterica serovar Typhimurium (KCTC 2515), and Klebsiella pneumoniae (KCTC 2690).
as §2

MDA-MB-231 (breast) = experiment: Sulforhodamine B (SRB) cytotoxicity assay, MDA-MB-231; details: Homo sapiens; MDA-MB-231, SRB assay, 48 h; read-out: Growth inhibition 50% (GI50) MDA-MB-231
Experimental: as §3, §2

PC-3 (prostate) = experiment: Sulforhodamine B (SRB) cytotoxicity assay, PC-3; details: PC-3, SRB assay, 48 h; read-out: Growth inhibition 50% (GI50) PC-3
Experimental: as §3, §2

NUGC-3 (stomach) = experiment: Sulforhodamine B (SRB) cytotoxicity assay, NUGC-3; details: Homo sapiens; NUGC-3, SRB assay, 48 h; read-out: Growth inhibition 50% (GI50) NUGC-3
Experimental: as §3, §2

NCI-H23 (lung) = experiment: Sulforhodamine B (SRB) cytotoxicity assay, NCI-H23; details: Homo sapiens, 48 h, read-out: Growth inhibition 50% (GI50) NCI-H23
Experimental: as §3, §2

HCT-15 (colon) = experiment: Sulforhodamine B (SRB) cytotoxicity assay, HCT-15; details: Homo sapiens; HCT-15, SRB assay, 48 h; read-out: Growth inhibition 50% (GI50) HCT-15
Experimental: as §3, §2

[8] = tested on: MRC-9 (lung fibroblast, normal cell line); experiment: Sulforhodamine B (SRB) cytotoxicity assay, MRC-9 normal cell line; details: MRC9, 48 h, read-out: Growth inhibition 50% (GI50) MRC-9
Experimental: as §3, §2

blood cancer cell lines = experiment: CTG cytotoxicity assay, panel of blood cancer cell lines; details: 48 h, read-out: GI50 values against blood cancer cell lines (range over the panel)
Experimental: as §1
(§4) The cytotoxicity test was conducted with CTG luminescent cell viability and SRB assay according to the published procedures. […] The cell cultures were then treated with 100 µL of CellTiter-Glo Reagent (Promega, Madison, WI, USA) and kept for 10 min to acquire a luminescence signal. Luminescence measurements were performed with the GloMax-Multi Detection System (Promega, Madison, WI, USA). […] Absorbance was measured at 540 nm with a VersaMax microplate reader (Molecular Devices, Sunnyvale, CA, USA) and GI50 values were calculated by GraphPad Prism 4.0 (GraphPad, San Diego, CA, USA).

solid cancer cell lines = experiment: SRB cytotoxicity assay, panel of solid cancer cell lines; details: six solid cancer cell lines or the normal cell line, 48 h, read-out: GI50 values against solid cancer cell lines (range over the panel)
Experimental: as §3, §4

Row | Structure (SMILES) | GI50 [1] | GI50 [2] | GI50 [3] | GI50 [4] | GI50 [5] | GI50 [6] | GI50 (U266 (multiple myeloma)) | GI50 [7] | GI50 (ACHN (renal)) | GI50 (MDA-MB-231 (breast)) | GI50 (PC-3 (prostate)) | GI50 (NUGC-3 (stomach)) | GI50 (NCI-H23 (lung)) | GI50 (HCT-15 (colon)) | GI50 [8] | GI50 (blood cancer cell lines) | GI50 (solid cancer cell lines)
1 | C=C1C[C@@]23C[C@@H]1CC[C@]2(O)[C@@]1(C)CCCC(C)(C)[C@@H]1[C@H](O)C3 [compound 5] | 16.4 µM | 4.58 µM | 5.93 µM | 7.34 µM | 11.9 µM | 11.1 µM | 22.5 µM | 9.56 µM | > 30 µM | > 30 µM | > 30 µM | > 30 µM | > 30 µM | > 30 µM | > 30 µM |  | 
2 | COc1cccc2c1C(=O)c1c(O)c3c(c(O)c1C2=O)C[C@@](O)(C(=O)CO)C[C@@H]3O[C@H]1C[C@H](N)[C@H](O)[C@H](C)O1 [Doxorubicin, reference compound] | 0.029 µM | 0.014 µM | 0.008 µM | 0.007 µM | 0.094 µM | 0.035 µM | 0.112 µM | 0.012 µM | 0.222 µM | 0.21 µM | 0.106 µM | 0.245 µM | 0.221 µM | 0.305 µM | 0.314 µM |  | 
3 | C=C1C2CCC3(O)C4(C)CCCC(C)(CO)C4C(O)CC3(C2)C1O (centres unmarked) [compound 4, geliboluol D] | 11.2 µM | 2.73 µM | 3.48 µM | 2.59 µM | 19.6 µM | 8.51 µM | > 30 µM | 4.52 µM | 4.58 µM | 5.73 µM | 6.5 µM | 4.34 µM | 5.13 µM | 5.73 µM | 7.23 µM | 2.59 to 19.6 µM | 4.34 to 7.23 µM
4 | C=C1C[C@@]23C[C@@H]1CC[C@]2(O)[C@@]1(C)CCC[C@@](C)(CO)[C@@H]1[C@H](O)C3 [compound 3, geliboluol C] | > 30 µM | > 30 µM | > 30 µM | > 30 µM | > 30 µM | > 30 µM | > 30 µM | > 30 µM | > 30 µM | > 30 µM | > 30 µM | > 30 µM | > 30 µM | > 30 µM | > 30 µM |  | 
5 | C=C1C[C@@]23C[C@@H]1CC[C@]2(O)[C@@]1(C)[C@@H](O)CCC(C)(C)[C@@H]1[C@H](O)C3 [compound 2, geliboluol B] | > 30 µM | > 30 µM | > 30 µM | > 30 µM | > 30 µM | > 30 µM | > 30 µM | > 30 µM | > 30 µM | > 30 µM | > 30 µM | > 30 µM | > 30 µM | > 30 µM | > 30 µM |  | 
6 | C=C1C[C@@]23C[C@@H]1CC[C@]2(O)[C@@]1(C)CC[C@H](O)C(C)(C)[C@@H]1[C@H](O)C3 [compound 1, geliboluol A] | > 30 µM | > 30 µM | > 30 µM | > 30 µM | > 30 µM | > 30 µM | > 30 µM | > 30 µM | > 30 µM | > 30 µM | > 30 µM | > 30 µM | > 30 µM | > 30 µM | > 30 µM |  | 

From publication PMC11857663, “Geliboluols A–D: Kaurane-Type Diterpenoids from the Marine-Derived Rare Actinomycete Actinomadura geliboluensis” (Marine Drugs, 2025)
